Laboratory results published in PubChem BioAssay (NCI).
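Where inhibition never reached the appropriate level, the endpoint shown equals the highest concentration tested. Otherwise, values were interpolated linearly from a five-concentration, 48-hour dose response in 96-well plates. TGI is the concentration that stops growth completely.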

Columns and labels:
Assay in all cases: NCI anticancer screen, dose series, 48 h
U251 CNS = tested on: U251 CNS
DU-145 prostate = tested on: DU-145 prostate
SK-OV-3 ovarian = tested on: SK-OV-3 ovarian
OVCAR-4 ovarian = tested on: OVCAR-4 ovarian
SK-MEL-28 melanoma = tested on: SK-MEL-28 melanoma
NCI-H23 lung = tested on: NCI-H23 lung
RPMI-8226 leukemia = tested on: RPMI-8226 leukemia
HCT-116 colon = tested on: HCT-116 colon
UACC-62 melanoma = tested on: UACC-62 melanoma
RXF 393 renal = tested on: RXF 393 renal
NCI-H460 lung = tested on: NCI-H460 lung
COLO 205 colon = tested on: COLO 205 colon
SK-MEL-5 melanoma = tested on: SK-MEL-5 melanoma
T-47D breast = tested on: T-47D breast
UO-31 renal = tested on: UO-31 renal
TK-10 renal = tested on: TK-10 renal
SW-620 colon = tested on: SW-620 colon
HS 578T breast = tested on: HS 578T breast
786-0 renal = tested on: 786-0 renal
OVCAR-3 ovarian = tested on: OVCAR-3 ovarian
MALME-3M melanoma = tested on: MALME-3M melanoma
UACC-257 melanoma = tested on: UACC-257 melanoma
A498 renal = tested on: A498 renal
MOLT-4 leukemia = tested on: MOLT-4 leukemia
EKVX NSCLC = tested on: EKVX NSCLC
SR leukemia = tested on: SR leukemia
A549 NSCLC = tested on: A549 NSCLC
SF-539 CNS = tested on: SF-539 CNS
HT29 colon = tested on: HT29 colon
MCF7 breast = tested on: MCF7 breast
CAKI-1 renal = tested on: CAKI-1 renal
BT-549 breast = tested on: BT-549 breast
LOX IMVI melanoma = tested on: LOX IMVI melanoma
KM12 colon = tested on: KM12 colon
SF-268 CNS = tested on: SF-268 CNS
HL-60(TB) leukemia = tested on: HL-60(TB) leukemia
MDA-MB-231 breast = tested on: MDA-MB-231 breast
M14 melanoma = tested on: M14 melanoma
HOP-62 NSCLC = tested on: HOP-62 NSCLC
OVCAR-8 ovarian = tested on: OVCAR-8 ovarian
NCI/ADR-RES ovarian = tested on: NCI/ADR-RES ovarian
K-562 leukemia = tested on: K-562 leukemia
IGROV1 ovarian = tested on: IGROV1 ovarian
CCRF-CEM leukemia = tested on: CCRF-CEM leukemia
HCT-15 colon = tested on: HCT-15 colon
SN12C renal = tested on: SN12C renal
SNB-19 CNS = tested on: SNB-19 CNS
NCI-H226 lung = tested on: NCI-H226 lung
ACHN renal = tested on: ACHN renal
NCI-H522 lung = tested on: NCI-H522 lung
HOP-92 NSCLC = tested on: HOP-92 NSCLC
SNB-75 CNS = tested on: SNB-75 CNS
SK-MEL-2 melanoma = tested on: SK-MEL-2 melanoma
MDA-MB-435 = tested on: MDA-MB-435
HCC-2998 colon = tested on: HCC-2998 colon
SF-295 CNS = tested on: SF-295 CNS
OVCAR-5 ovarian = tested on: OVCAR-5 ovarian
PC-3 prostate = tested on: PC-3 prostate

Q: How did the TGI (U251 CNS) turn out when `CCCc1ccc(OCC(=O)N/N=C/c2c(-c3ccccc3)[nH]c3ccccc23)cc1` was run?
A: 20.3 µM

Q: What about the TGI (DU-145 prostate) of the same compound?
A: > 100 µM

Q: What about the TGI (SK-OV-3 ovarian) of the same compound?
A: > 100 µM

Q: What about the TGI (OVCAR-4 ovarian) of the same compound?
A: 42.7 µM

Q: What about the TGI (SK-MEL-28 melanoma) of the same compound?
A: > 100 µM

Q: And the TGI (NCI-H23 lung)?
A: 38.2 µM

Q: And the TGI (RPMI-8226 leukemia)?
A: 30.7 µM

Q: And the TGI (HCT-116 colon)?
A: 27.7 µM

Q: What about the TGI (UACC-62 melanoma) of the same compound?
A: 26.3 µM

Q: What about the TGI (RXF 393 renal) of the same compound?
A: 28.8 µM

Q: What about the TGI (NCI-H460 lung) of the same compound?
A: 22.7 µM

Q: What about the TGI (COLO 205 colon) of the same compound?
A: 14.3 µM

Q: What about the TGI (SK-MEL-5 melanoma) of the same compound?
A: 20.8 µM

Q: What about the TGI (T-47D breast) of the same compound?
A: 52.4 µM

Q: And the TGI (UO-31 renal)?
A: > 100 µM

Q: What about the TGI (TK-10 renal) of the same compound?
A: 63.8 µM

Q: What about the TGI (SW-620 colon) of the same compound?
A: > 100 µM

Q: And the TGI (HS 578T breast)?
A: > 100 µM

Q: What about the TGI (786-0 renal) of the same compound?
A: 35.7 µM

Q: What about the TGI (OVCAR-3 ovarian) of the same compound?
A: 95.2 µM

Q: And the TGI (MALME-3M melanoma)?
A: > 100 µM

Q: And the TGI (UACC-257 melanoma)?
A: 33.7 µM

Q: What about the TGI (A498 renal) of the same compound?
A: 31.8 µM

Q: What about the TGI (MOLT-4 leukemia) of the same compound?
A: 30.4 µM

Q: What about the TGI (EKVX NSCLC) of the same compound?
A: 92.8 µM

Q: And the TGI (SR leukemia)?
A: 23.1 µM

Q: And the TGI (A549 NSCLC)?
A: > 100 µM

Q: And the TGI (SF-539 CNS)?
A: 42.5 µM

Q: And the TGI (HT29 colon)?
A: 29.8 µM

Q: And the TGI (MCF7 breast)?
A: 54.3 µM

Q: And the TGI (CAKI-1 renal)?
A: > 100 µM

Q: What about the TGI (BT-549 breast) of the same compound?
A: 34 µM

Q: What about the TGI (LOX IMVI melanoma) of the same compound?
A: 21.6 µM

Q: What about the TGI (KM12 colon) of the same compound?
A: 38.5 µM

Q: What about the TGI (SF-268 CNS) of the same compound?
A: > 100 µM

Q: And the TGI (HL-60(TB) leukemia)?
A: 23.8 µM

Q: What about the TGI (MDA-MB-231 breast) of the same compound?
A: 28.9 µM

Q: And the TGI (M14 melanoma)?
A: 28.2 µM

Q: What about the TGI (HOP-62 NSCLC) of the same compound?
A: 37.8 µM

Q: What about the TGI (OVCAR-8 ovarian) of the same compound?
A: 53.4 µM

Q: What about the TGI (NCI/ADR-RES ovarian) of the same compound?
A: 42.5 µM

Q: And the TGI (K-562 leukemia)?
A: 23.1 µM

Q: And the TGI (IGROV1 ovarian)?
A: 65.8 µM

Q: What about the TGI (CCRF-CEM leukemia) of the same compound?
A: 40.1 µM

Q: And the TGI (HCT-15 colon)?
A: 59.8 µM

Q: What about the TGI (SN12C renal) of the same compound?
A: 32.1 µM

Q: And the TGI (SNB-19 CNS)?
A: > 100 µM

Q: What about the TGI (NCI-H226 lung) of the same compound?
A: 40.5 µM

Q: What about the TGI (ACHN renal) of the same compound?
A: > 100 µM

Q: What about the TGI (NCI-H522 lung) of the same compound?
A: 82 µM

Q: What about the TGI (HOP-92 NSCLC) of the same compound?
A: 35.3 µM

Q: What about the TGI (SNB-75 CNS) of the same compound?
A: 58.6 µM

Q: And the TGI (SK-MEL-2 melanoma)?
A: 15.3 µM

Q: And the TGI (MDA-MB-435)?
A: 8.74 µM

Q: And the TGI (HCC-2998 colon)?
A: 14.1 µM

Q: And the TGI (SF-295 CNS)?
A: 34.4 µM

Q: What about the TGI (OVCAR-5 ovarian) of the same compound?
A: 58.6 µM

Q: What about the TGI (PC-3 prostate) of the same compound?
A: 29.4 µM
